Assay results from US20040170580A1, “Filtering suntan product” (priority 2001, published 2004).

System: normal human keratinocyte/melanocyte cocultures
Assay: UV-induced melanogenesis by 14C-thiouracil incorporation related to amount of protein
Type: cell-based
Procedure: The protoprotective and propigmenting effect of the combination was tested on normal human keratinocyte/melanocyte cocultures according to the method described in patent FR 95/06491, by evaluating the UV-induced melanogenesis. The rate of melanin synthesis is evaluated through the incorporation of C^14-labeled thiouracil. It is related to the amount of protein.
Normal human keratinocytes (NHKs) and normal human melanocytes (NHMs) are cultured from foreskin. The two types of cell are amplified and stored frozen. Eight days before the test, each of the cell types is again placed in culture. The keratinocytes are cultured according to the method described by Rheinwald and Green (Cell (1975) 6, 331-334) on feeder cells (3T3 fibroblasts) in Green 7F growth medium (DMEM/F12, 3:1, 10% fetal calf serum (Gibco), 0.18 mM adenine, 10 ng/ml epidermal growth factor EGF, 0.4 μg/ml hydrocortisone, 5 μg/ml insulin, 10 μM isoproterenol, 5 μg/ml transferrin and 2 nM triiodothyronine). The melanocytes are amplified in M2 medium (Olsson, M. J. et al., Lancet (1992) 340, 981). The media are changed every two days.
3 days before the test, 250 000 normal human keratinocytes and 80 000 normal human melanocytes are mixed and seeded per well of 24-well plates (Costar type) and cultured for three days in the keratinocyte growth medium (Green 7F) without phenol red. During the following four days, the culture medium is replaced daily with UV medium (DMEM/F12, 3:1, without phenol red, 2% defined calf serum (HyClone), 10 ng/ml EGF, 10 ng/ml fibroblast growth factor type β (βFGF)).
The UV-induction of pigmentation is carried out by solar simulated radiation (SSR) using a 1 000 watt Oriel Xenon solar simulator comprising a 280-400 nm dichroic filter (Oriel, model 81035) and a Schott WG 320 filter having a wavelength cut-off of 311 nm (corresponding to a thickness of approximately 1.5 mm).
The cell cultures are irradiated once a day for 4 days in a phosphate buffer solution (PBS).
The propigmenting molecules are brought into contact with the cells in the PBS during the irradiation and added to the culture medium (UV medium) after irradiation.
The extract of Burnet is tested at 0.005%. It is prepared in a stock solution at 0.5% in a solvent (dimethyl sulfoxide, DMSO), which is added at a 1/1 000 dilution to the PBS and to the UV medium. The final concentration of the solvent in the culture medium is therefore 1/1 000.
The extract of Chrysanthemum sinensis obtained according to protocol Nos. 2+4 is tested at 1%.
The tyrosine, which serves as a positive control, is tested at 500 μM.
The Mexoryl SX® is tested at 8%.
After each exposure to UV radiation, the formulations containing the sunscreen are applied, in the proportion of 1.4 mg/cm^2, to a quartz slide on which there is a Transpore® strip, according to a method derived from that used to determine sun protection indices in vitro, described by Diffey and Robson (J Soc Cosmet Chemists (1989) 300, 230-235). The assembly is placed above the cocultures for the duration of the irradiation.
After irradiation, the cells are incubated in the UV medium containing 1 μCi/ml of C^14-labeled thiouracil.
Measurement of Melanogenesis:
The following controls are realized:
control culture: no product tested […]
24 hours after the final UV irradiation, the cells are rinsed in phosphate buffer. The proteins are precipitated with 5% trichloroacetic acid (TCA) and washed in order to remove the free radioactivity. […]

For `CC1(C)C2CCC1(CS(=O)(=O)O)C(=O)C2=Cc1ccc(C=C2C(=O)C3(CS(=O)(=O)O)CCC2C3(C)C)cc1` [Mexoryl SX ®], which “% variation in melanin synthesis compared to the control; A = 14CthioU/amount protein (%/control)” value (SSR irradiation + solvent (DMSO 1/1000), 8% Mexoryl SX formulation on quartz slide above the cocultures, no propigmenting agent) is on record?
The value was 36%.

And the “% variation in melanin synthesis compared to the control; A = 14CthioU/amount protein (%/control)” value (SSR irradiation once a day for 4 days, 8% Mexoryl SX formulation 1.4 mg/cm2 on quartz slide above the cocultures, no propigmenting agent, no solvent)?
Its value is 15%.

`N[C@@H](Cc1ccc(O)cc1)C(=O)O` [tyrosine] was tested. Which “% variation in melanin synthesis compared to the control; A = 14CthioU/amount protein (%/control)” value (SSR irradiation once a day for 4 days, no screening agent, tyrosine 500 μM, extract of Burnet 0.005% (DMSO solvent), extract of Chrysanthemum sinensis 1%) did it give?
The value was 382%.

And the “% variation in melanin synthesis compared to the control; A = 14CthioU/amount protein (%/control)” value (SSR irradiation screened by 8% Mexoryl SX formulation, in combination with propigmenting agent: tyrosine 500 μM, extract of Burnet 0.005% (DMSO solvent), extract of Chrysanthemum sinensis 1%)?
Its value is 74%.

What about the “% variation in melanin synthesis compared to the control; A = 14CthioU/amount protein (%/control)” value (no irradiation, propigmenting agent alone: tyrosine 500 μM, extract of Burnet 0.005% (DMSO solvent 1/1000), extract of Chrysanthemum sinensis 1%) of the same compound?
The value was 40%.
